Data set [1] is described as follows: Inhibition of Cu2+ - induced amyloid beta (1 to 42) (unknown origin) aggregation at 50 uM after 24 hrs by thioflavin T-based fluorometric assay relative to control.
In data set [2] the target is T1, Amyloid-beta precursor protein (Homo sapiens, UniProt P05067). Briefly: Inhibition of HFIP-pretreated amyloid beta (1 to 42) (unknown origin) self-induced aggregation at 10 uM after 48 hrs by thioflavin T-based fluorometric assay relative to control.
Data set [3] can be described thus: Antioxidant activity assessed as trolox equivalents of AAPH radical scavenging activity at 10 uM preincubated for 15 mins followed by AAPH addition measured every minute for 120 mins by ORAC-FL assay. It is filed as functional.
A short description of data set [4]: Inhibition of Zn2+ - induced amyloid beta (1 to 42) (unknown origin) aggregation at 50 uM after 24 hrs by thioflavin T-based fluorometric assay relative to control.
Data set [5] has as its target T1, Amyloid-beta precursor protein. Briefly: Inhibition of HFIP-pretreated amyloid beta (1 to 42) (unknown origin) self-induced aggregation after 48 hrs by thioflavin T-based fluorometric assay.
For another data set, the system named is PC-12. As to the kind of experiment: Cytoprotection against H2O2-induced oxidative stress in rat PC12 cells assessed as increase in cell viability up to 10 uM after 24 hrs by MTT assay. In kind it is functional, cell-based. (Formazan colour is commonly taken as a measure of viable cells.)
Another data set is described as follows: in vitro. The settings on record: PAMPA. Background: PAMPA measures passive passage across an artificial lipid membrane.

In general, inhibition refers to the change of the read-out against control, counted positive when it falls. What is called IC50 is the concentration that inhibits the measured activity by half. A word on the Papp: it is a coefficient for how fast a substance crosses the barrier. A low value points to poor permeation.

Active and inactive are the calls of the source. No cut-off for these calls is given here.

T1 sequence (P05067 whole entry): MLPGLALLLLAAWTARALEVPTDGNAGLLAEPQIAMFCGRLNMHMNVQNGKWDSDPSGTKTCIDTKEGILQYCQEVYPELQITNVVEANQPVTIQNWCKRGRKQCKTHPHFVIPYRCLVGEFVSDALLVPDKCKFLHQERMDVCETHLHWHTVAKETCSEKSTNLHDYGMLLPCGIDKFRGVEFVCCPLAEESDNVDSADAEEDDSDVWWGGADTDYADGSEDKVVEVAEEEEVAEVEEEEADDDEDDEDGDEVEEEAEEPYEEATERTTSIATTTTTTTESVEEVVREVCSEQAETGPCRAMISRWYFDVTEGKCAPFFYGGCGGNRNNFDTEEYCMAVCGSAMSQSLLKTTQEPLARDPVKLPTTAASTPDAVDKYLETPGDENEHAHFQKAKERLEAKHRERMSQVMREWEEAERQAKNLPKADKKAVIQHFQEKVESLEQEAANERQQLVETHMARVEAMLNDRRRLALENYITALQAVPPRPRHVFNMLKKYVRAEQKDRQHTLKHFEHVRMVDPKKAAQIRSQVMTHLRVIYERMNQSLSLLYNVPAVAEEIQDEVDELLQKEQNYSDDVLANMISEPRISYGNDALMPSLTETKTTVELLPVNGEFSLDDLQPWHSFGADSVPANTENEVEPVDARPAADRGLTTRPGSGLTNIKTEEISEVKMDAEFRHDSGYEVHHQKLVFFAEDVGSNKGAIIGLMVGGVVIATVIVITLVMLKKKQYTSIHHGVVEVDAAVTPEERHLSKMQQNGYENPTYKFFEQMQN
Description for in vitro: Permeability of the compound at 100 ug/ml after 10 hrs by PAMPA

`Oc1c(I)cc(Cl)c2cccnc12`: the values for the inhibition in data set [1], in data set [2] and in data set [4] were 61.4%, 25.7% and 55.3%, respectively. For the same molecule, the Activity in data set [3] turned out to be 0.53 equiv.

As for `O=C(CCc1ccc(F)cc1)N1CCN(Cc2ccc(O)c3ncccc23)CC1`, the inhibition in data set [2] amounted to 32.5%. Moreover, in data set [5], the IC50 was determined as 20.6 µM. Moreover, the Activity in data set [3] is 2.32 equiv.

Take `Cc1c(C)c2c(c(C)c1O)CCC(C)(C(=O)O)O2` (stereo unspecified): the outcome with PC-12 was Active.

For `O=C(/C=C/c1ccccc1)N1CCN(Cc2ccc(O)c3ncccc23)CC1`, the results for the inhibition in data set [1], in data set [2] and in data set [4] were 69.8%, 55% and 66.5%, respectively. In addition, the IC50 in data set [5] was determined as 8.86 µM. Further, in data set [3], the Activity is 1.65 equiv.

In the case of `COc1ccc(/C=C/C(=O)N2CCN(Cc3ccc(O)c4ncccc34)CC2)cc1`, in data set [2], the inhibition is 12.3%. Also, the Activity in data set [3] was 1.25 equiv.

With `O=C(O)/C=C/c1ccccc1`, the Activity in data set [3] was determined as 1.04 equiv.

For `O=C(CCc1ccc(Cl)cc1)N1CCN(Cc2ccc(O)c3ncccc23)CC1`, the inhibition in data set [2] was 15.6%. Moreover, the Activity in data set [3] was 2.57 equiv.

As to `Cc1ccccc1/C=C/C(=O)N1CCN(Cc2ccc(O)c3ncccc23)CC1`, the inhibition in data set [2] came to 26.1%. Moreover, the IC50 in data set [5] came to 17.3 µM. Moreover, the Activity in data set [3] came out at 1.52 equiv.

As to `O=C(O)CCc1ccccc1`, the Activity in data set [3] stood at 0.86 equiv.

`O=C(CCc1ccccc1)N1CCN(Cc2ccc(O)c3ncccc23)CC1`: the inhibition in data set [2] worked out at 28.1%. For the same molecule, the IC50 in data set [5] is 19.7 µM. Moreover, the Activity in data set [3] was found to be 2.6 equiv.

For `COc1ccc(/C=C/C(=O)N2CCN(Cc3ccc(O)c4ncccc34)CC2)cc1OC`, in the data set “in vitro”, the Papp at 10 h, 100 ug/ml amounted to 8.82 ×10⁻⁶ cm/s. For the same molecule, the inhibition in data set [2] turned out to be 29.4%. In addition, in data set [5], the IC50 was 18.9 µM. In addition, the Activity in data set [3] is 1.08 equiv.

Consider `O=C(/C=C/c1ccc(Cl)cc1)N1CCN(Cc2ccc(O)c3ncccc23)CC1`, for which the inhibition in data set [2] was 25.7%. In addition, in data set [5], the 50% inhibitory concentration (IC50) was 22.6 µM. Moreover, the Activity in data set [3] worked out at 0.69 equiv.

Molecule `C[C@]12CC[C@@H]3c4ccc(O)cc4CC[C@H]3[C@@H]1CC[C@@H]2O` [ESTRADIOL] returned a Papp at 10 h, 100 ug/ml in “in vitro” of 9.17 ×10⁻⁶ cm/s.

In the data set “in vitro”, `CCn1cc(C(=O)O)c(=O)c2cc(F)c(N3CCNC(C)C3)c(F)c21` (stereo unspecified) [LOMEFLOXACIN] showed a Papp at 10 h, 100 ug/ml of 1.59 ×10⁻⁶ cm/s. This Papp at 10 h, 100 ug/ml is about 5.8-fold lower than that of the molecule before.

On to `O=C(/C=C/c1ccc(F)cc1F)N1CCN(Cc2ccc(O)c3ncccc23)CC1`, for which the inhibition in data set [1] stood at 62.1%; in data set [2], 73.4%; in data set [4] it was 52%. In “in vitro”, this molecule showed a Papp at 10 h, 100 ug/ml of 18.6 ×10⁻⁶ cm/s. In data set [5], the IC50 was 5.05 µM. Further, the Activity in data set [3] was determined as 1.57 equiv.

`COc1ccc(CCC(=O)N2CCN(Cc3ccc(O)c4ncccc34)CC2)cc1`: the inhibition in data set [2] was 34.3%. For the same molecule, in data set [5], the IC50 came out at 18.3 µM. The Activity in data set [3] came out at 2.89 equiv.

In “in vitro”, `COc1ccc(CCC(=O)N2CCN(Cc3ccc(O)c4ncccc34)CC2)cc1OC` gave a Papp at 10 h, 100 ug/ml of 9.67 ×10⁻⁶ cm/s. In addition, the inhibition in data set [2] came to 18.3%. The Activity in data set [3] was 3.74 equiv.

The molecule `O=C(/C=C/c1ccccc1Cl)N1CCN(Cc2ccc(O)c3ncccc23)CC1` came in with an apparent permeability (Papp) at 10 h, 100 ug/ml in “in vitro” of 6.83 ×10⁻⁶ cm/s. Further, in data set [2], the inhibition worked out at 61.9%. Further, in data set [5], the IC50 is 7.35 µM. Also, the Activity in data set [3] was determined as 0.71 equiv.

Regarding `O=C(/C=C/c1ccc(F)cc1)N1CCN(Cc2ccc(O)c3ncccc23)CC1`, the inhibition in data set [2] is 49.9%. In data set [5], the IC50 was determined as 11.4 µM. Further, the Activity in data set [3] is 1.45 equiv.

Take `Oc1ccc(/C=C/c2cc(O)cc(O)c2)cc1`: in data set [3], the Activity was 3.28 equiv.

Turning to `O=C(/C=C/c1ccc([N+](=O)[O-])cc1)N1CCN(Cc2ccc(O)c3ncccc23)CC1`, in data set [2], the inhibition was determined as 13.2%. Besides, the Activity in data set [3] amounted to 0.71 equiv.

`N#Cc1ccc(/C=C/C(=O)N2CCN(Cc3ccc(O)c4ncccc34)CC2)cc1`: the inhibition in data set [2] was 27.8%. Besides, the IC50 in data set [5] is 16.8 µM. Besides, the Activity in data set [3] was found to be 1.77 equiv.

On to `O=C(/C=C/c1ccc(Br)cc1)N1CCN(Cc2ccc(O)c3ncccc23)CC1`, for which the inhibition in data set [2] was 8.65%. Moreover, the Activity in data set [3] was determined as 0.93 equiv.

Values taken from ChEMBL document CHEMBL4219257, “Novel 8-hydroxyquinoline derivatives targeting β-amyloid aggregation, metal chelation and oxidative stress against Alzheimer's disease” (Bioorg Med Chem, 2018).
